The values below come from ChEMBL document CHEMBL4396967, “In vitro cytotoxicity screening to identify novel anti-osteosarcoma therapeutics targeting pyruvate dehydrogenase kinase 2” (Bioorg Med Chem Lett, 2019).

Calls of active or inactive are those of the source. The rule behind the calls is not given here.

The target in assay [1] is T1, [Pyruvate dehydrogenase (acetyl-transferring)] kinase isozyme 2, mitochondrial (Homo sapiens, UniProt Q15119). In words: Inhibition of PDK2 (unknown origin) using PDCE1 as substrate at 5 uM incubated for 30 mins by kinase-Glo reagent based luminescence assay relative to control.
Assay [2] deals with MG-63. In words: Antiproliferative activity against human MG63 cells assessed as reduction in cell viability incubated for 72 hrs by MTT assay. In kind it is functional, cell-based. The conditions noted are these: MG-63, 72 h.
The subject of assay [3] is SAOS-2. In words: Antiproliferative activity against human Saos2 cells assessed as reduction in cell viability incubated for 72 hrs by MTT assay. The conditions noted are these: SAOS-2, 72 h. It is filed as functional, cell-based.
In assay [4] the test system is MG-63. In words: Antiproliferative activity against human MG63 cells assessed as reduction in cell viability at 10 uM incubated for 72 hrs by MTT assay relative to control. It is filed as functional. As to conditions: MG-63, 72 h.
For assay [5], the system named is SAOS-2. In words: Antiproliferative activity against human Saos2 cells assessed as reduction in cell viability at 10 uM incubated for 72 hrs by MTT assay relative to control. In kind it is functional. As to conditions: SAOS-2, 72 h.
For assay [6], the species on record is Homo sapiens. In words: Selectivity index, ratio of EC50 of PDK4 (unknown origin) to EC50 of PDK2 (unknown origin).
Assay [7] addresses T1, [Pyruvate dehydrogenase (acetyl-transferring)] kinase isozyme 2, mitochondrial. In words: Inhibition of PDK2 in human MG63 cells assessed as reduction in lactate formation at 2 to 10 uM incubated for 4 hrs. It is filed as cell-based.
Assay [8] has the same target. In words: Binding affinity to PDK2 (unknown origin) assessed as dissociation constant by ITC analysis.
Assay [9] concerns the target [Pyruvate dehydrogenase (acetyl-transferring)] kinase isozyme 3, mitochondrial (Homo sapiens, UniProt Q15120). In words: Inhibition of PDK3 (unknown origin) using PDCE1 as substrate incubated for 30 mins by kinase-Glo reagent based luminescence assay.
For assay [10], the target named is T1, [Pyruvate dehydrogenase (acetyl-transferring)] kinase isozyme 2, mitochondrial. In words: Inhibition of PDK2 in human MG63 cells assessed as reduction in PDC phosphorylation at 2 or 5 uM incubated for 12 hrs by Western blot analysis. In kind it is cell-based.
For assay [11] the target is unchanged. In words: Inhibition of PDK2 (unknown origin) using PDCE1 as substrate incubated for 30 mins by kinase-Glo reagent based luminescence assay.
For assay [12], the target named is [Pyruvate dehydrogenase (acetyl-transferring)] kinase isozyme 1, mitochondrial (Homo sapiens, UniProt Q15118). In words: Inhibition of PDK1 (unknown origin) using PDCE1 as substrate incubated for 30 mins by kinase-Glo reagent based luminescence assay.
Sequence of [Pyruvate dehydrogenase (acetyl-transferring)] kinase isozyme 1, mitochondrial (Q15118 whole entry): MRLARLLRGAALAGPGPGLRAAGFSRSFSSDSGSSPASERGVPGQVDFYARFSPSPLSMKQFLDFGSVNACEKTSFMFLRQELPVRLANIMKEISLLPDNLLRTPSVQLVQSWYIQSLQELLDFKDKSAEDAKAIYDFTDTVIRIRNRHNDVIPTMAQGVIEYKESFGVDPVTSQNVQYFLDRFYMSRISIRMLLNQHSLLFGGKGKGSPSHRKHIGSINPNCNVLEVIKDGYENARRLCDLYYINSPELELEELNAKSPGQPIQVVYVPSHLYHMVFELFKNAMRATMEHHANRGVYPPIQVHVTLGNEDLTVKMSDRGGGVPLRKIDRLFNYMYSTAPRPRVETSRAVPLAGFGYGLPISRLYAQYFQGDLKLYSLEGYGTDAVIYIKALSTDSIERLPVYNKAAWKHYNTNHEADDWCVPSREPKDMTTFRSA
Assay [13] concerns the target [Pyruvate dehydrogenase (acetyl-transferring)] kinase isozyme 4, mitochondrial (Homo sapiens, UniProt Q16654). In words: Inhibition of PDK4 (unknown origin) using PDCE1 as substrate incubated for 30 mins by kinase-Glo reagent based luminescence assay.
The species entered for assay [14] is Homo sapiens. In words: Selectivity index, ratio of EC50 of PDK3 (unknown origin) to EC50 of PDK2 (unknown origin).
The species named for assay [15] is Homo sapiens. In words: Selectivity index, ratio of EC50 of PDK1 (unknown origin) to EC50 of PDK2 (unknown origin).
Assay [16] concerns the target T1, [Pyruvate dehydrogenase (acetyl-transferring)] kinase isozyme 2, mitochondrial. In words: Inhibition of recombinant human N-terminal His6-tagged SUMO-fused PDK2 expressed in Escherichia coli BL-21 cells preincubated for 15 mins followed by addition of [gamma33-ATP] and measured after 90 secs by Scintillation counting method.
The target is the same in assay [17]. In words: Inhibition of PDK2 (unknown origin).

Sequence of [Pyruvate dehydrogenase (acetyl-transferring)] kinase isozyme 3, mitochondrial (Q15120 whole entry): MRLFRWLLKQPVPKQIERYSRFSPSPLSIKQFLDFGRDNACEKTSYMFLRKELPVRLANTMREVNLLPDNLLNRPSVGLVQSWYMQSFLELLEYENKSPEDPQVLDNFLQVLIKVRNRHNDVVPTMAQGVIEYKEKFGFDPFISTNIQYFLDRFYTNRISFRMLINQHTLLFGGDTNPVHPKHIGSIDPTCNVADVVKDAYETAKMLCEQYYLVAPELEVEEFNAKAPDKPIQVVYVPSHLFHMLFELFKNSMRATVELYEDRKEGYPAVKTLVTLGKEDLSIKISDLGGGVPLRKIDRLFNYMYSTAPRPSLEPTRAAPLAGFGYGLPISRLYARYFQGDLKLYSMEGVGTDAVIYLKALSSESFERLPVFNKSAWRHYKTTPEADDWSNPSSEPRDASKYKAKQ
Sequence of [Pyruvate dehydrogenase (acetyl-transferring)] kinase isozyme 4, mitochondrial (Q16654 whole entry): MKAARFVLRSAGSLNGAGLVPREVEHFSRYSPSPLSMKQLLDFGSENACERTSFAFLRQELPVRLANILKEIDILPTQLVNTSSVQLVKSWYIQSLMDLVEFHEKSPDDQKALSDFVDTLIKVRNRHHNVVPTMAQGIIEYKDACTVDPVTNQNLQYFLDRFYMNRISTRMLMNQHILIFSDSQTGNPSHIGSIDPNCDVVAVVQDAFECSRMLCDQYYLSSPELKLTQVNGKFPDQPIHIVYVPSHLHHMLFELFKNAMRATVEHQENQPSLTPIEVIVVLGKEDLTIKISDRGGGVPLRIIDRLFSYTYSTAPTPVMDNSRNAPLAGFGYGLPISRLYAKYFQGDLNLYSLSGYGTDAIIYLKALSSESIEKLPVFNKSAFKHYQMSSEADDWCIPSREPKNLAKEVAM

Regarding `Cc1cc(N2CCCCC2)nc(CNC(=O)CNC(=O)c2ccccc2)n1`, in [1], the inhibition amounted to 20.1%. Moreover, the results for the IC50 in the assay with MG-63 [2] and in the assay on SAOS-2 [3] were 2.7 µM and 4.8 µM, respectively. Further, the inhibition at 10 µM in the assay with MG-63 [4] stood at 88.5%; in the assay with SAOS-2 [5], 77.6%.

`Cc1cc(=O)n2nc(N3CCN(C(=O)Cc4c[nH]c5ccccc45)CC3)nc2[nH]1`: in assay [1], the inhibition entry is “inactive”. Further, the IC50 in the assay with MG-63 [2] was determined as 9.4 µM; in the assay on SAOS-2 [3] it was 7.6 µM. For the same compound, the inhibition at 10 µM in the assay with MG-63 [4] is 60.8%; with SAOS-2 [5] it was 75.9%.

For `CSc1nc(N2CCOCC2)c2cnn(CCNC(=O)C3CCCC3)c2n1`, the inhibition result in assay [1] is “inactive”. Besides, the half-inhibitory concentration (IC50) in the assay on MG-63 [2] and with SAOS-2 [3] was greater than 10 µM each time. The inhibition at 10 µM with MG-63 [4] stood at 53.3%; with SAOS-2 [5] it was 45.1%.

In [1], `CC(C)NC(=O)COc1coc(CN2CCN(c3ccccc3F)CC2)cc1=O` gave an inhibition of 79.7%. Also, the Ratio EC50 in the assay filed under Homo sapiens [6] amounted to 60.9; in the assay listed under Homo sapiens [14], 21.9; in the assay filed under Homo sapiens [15], 10.6. Besides, the inhibition result in assay [7] and in assay [10] was “Active” in each case. Besides, the dissociation constant (Kd) in assay [8] was determined as 2.35 µM. Further, the values for the 50% inhibitory concentration (IC50) in the assay on MG-63 [2] and with SAOS-2 [3] were 4.7 µM and 5.6 µM, respectively. In addition, the EC50 was 24.5 µM in [9], 1.1 µM in [11], 11.7 µM in assay [12] and 67 µM in [13]. Moreover, the inhibition at 10 µM with MG-63 [4] was determined as 78.6%; in the assay on SAOS-2 [5], 75.3%.

For the compound `Cc1ccccc1OCC(O)Cn1c(C2CC(=O)N(C(C)(C)C)C2)nc2ccccc21` (centres undefined), the inhibition entry in assay [1] was “inactive”. For the same compound, the IC50 worked out at 7.7 µM with MG-63 [2] and 8.9 µM with SAOS-2 [3]. Moreover, the inhibition at 10 µM worked out at 72.8% in the assay on MG-63 [4] and 59.3% in the assay on SAOS-2 [5].

Turning to `O=C(CCn1ccc(=O)[nH]c1=O)N1CCN(C2=CC3CCCCC3N=N2)CC1` (centres undefined), the inhibition result in assay [1] was “inactive”. Further, the IC50 in the assay on MG-63 [2] amounted to 2.1 µM; with SAOS-2 [3], 1.8 µM. For the same compound, the inhibition at 10 µM in the assay on MG-63 [4] is 84.4%; in the assay with SAOS-2 [5] it was 86.7%.

On to `COc1cccc(C(=O)NCc2nc(N3CCCC3)nc(N3CCOCC3)n2)c1`, for which the inhibition entry in assay [1] is “inactive”. For the same compound, the results for the half-maximal inhibitory concentration (IC50) in the assay with MG-63 [2] and in the assay with SAOS-2 [3] were 9.2 µM and 8.1 µM, respectively. The inhibition at 10 µM with MG-63 [4] came to 53.8%; with SAOS-2 [5], 68.5%.

In the case of `O=C(CCn1ccc(=O)[nH]c1=O)N1CCC(Cc2n[nH]c(=O)n2-c2ccccc2F)CC1`, the inhibition result in assay [1] was “inactive”. For the same compound, the IC50 with MG-63 [2] was 7.1 µM; in the assay on SAOS-2 [3], greater than 10 µM. Besides, the inhibition at 10 µM in the assay with MG-63 [4] was 62.7%; in the assay with SAOS-2 [5] it was 48.9%.

`O=C(COc1coc(CN2CCN(c3cccc(Cl)c3)CC2)cc1=O)NC1CCCC1`: in assay [1], the inhibition stood at 47.5%. Besides, the figures for the IC50 in the assay on MG-63 [2] and in the assay on SAOS-2 [3] were 8.5 µM and 7.7 µM, respectively. Moreover, the inhibition at 10 µM in the assay on MG-63 [4] was found to be 62.3%; with SAOS-2 [5] it was 65.3%.

For the compound `O=S(=O)(c1ccc(O)cc1O)N1Cc2cc(O)cc(O)c2C1`, in assay [16], the EC50 came to 0.456 µM.

The compound `CC(C)NC(=O)COc1coc(CN2CCN(c3ccccc3)CC2)cc1=O` returned an inhibition in assay [1] of 64.3%. The IC50 in the assay with MG-63 [2] was 5.8 µM; in the assay on SAOS-2 [3], 5.3 µM. In assay [11], this compound showed an EC50 of 3.8 µM. For the same compound, the results for the inhibition at 10 µM in the assay on MG-63 [4] and with SAOS-2 [5] were 70.6% and 74.5%, respectively.

In the case of `COc1ccc(N2CCn3c2nnc(C(=O)NCCCN(C)C)c3=O)cc1`, the inhibition result in assay [1] was “inactive”. Also, the IC50 with MG-63 [2] was 4.9 µM; with SAOS-2 [3], 7.9 µM. The inhibition at 10 µM stood at 71.1% in the assay on MG-63 [4] and 65.4% in the assay on SAOS-2 [5].

On to `O=C(C1=C(CO)C(=O)N(CCCN2CCOCC2)[C@H]1c1ccncc1)c1cccs1`, for which the inhibition entry in [1] was “inactive”. Moreover, the values for the IC50 with MG-63 [2] and with SAOS-2 [3] were 1.2 µM and 2 µM, respectively. The inhibition at 10 µM in the assay on MG-63 [4] was 86.9%; in the assay on SAOS-2 [5], 79.3%.

Consider `CN(C)c1cncc(OC2CCN(C(=O)Cc3c[nH]c4ccccc34)C2)n1` (centres undefined), for which the inhibition entry in assay [1] was “inactive”. In addition, the IC50 in the assay with MG-63 [2] came out at 2.8 µM; in the assay on SAOS-2 [3] it was 2.2 µM. In addition, the inhibition at 10 µM was determined as 83.9% in the assay with MG-63 [4] and 87.7% with SAOS-2 [5].

As for `CN(C)C(=O)c1ccc(S(=O)(=O)c2ccc(NC(=O)[C@@](C)(O)C(F)(F)F)c(Cl)c2)cc1`, in assay [17], it took 0.08 µM to reach a half-maximal effect (EC50).

`CNC(=O)COc1coc(CN2CCN(c3ccccc3)CC2)cc1=O` gave an inhibition in assay [1] of 54.1%. Moreover, the IC50 with MG-63 [2] was found to be 7.9 µM; in the assay with SAOS-2 [3], 6.7 µM. The compound also returned a half-maximal effective concentration (EC50) in assay [11] of 5.2 µM. Moreover, the inhibition at 10 µM in the assay on MG-63 [4] was found to be 66.1%; in the assay with SAOS-2 [5], 71.2%.
